# Assay results taken from patent US11033641B2, “Radiolabelled mGluR2/3 pet ligands” (Janssen Pharmaceutica NV, priority 2015, dated 2021).
# Columns and labels:
# Glu2-3 rat cortex = experiment: [3H]-compound A displacement binding, rat cortical membranes; conditions: 6 nM [3H]-compound A
# Experimental: (§1) For [^3H]-compound A (a NAM compound, selective for mGlu2/3 (˜20 fold selective for 2 over 3) vs other mGluRs) binding, membranes from human mGlu2 and mGlu3 HEK293 cells, and also rat cortical membranes, were used. After thawing, membranes were homogenized using an Ultra Turrax homogenizer and suspended in ice-cold binding buffer containing 50 mM Tris-HCl (pH 7.4), 10 mM MgCl2, 2 mM CaCl2. Displacement studies were done using 6 nM of radioligand, except for human mGlu3 membranes where 25 nM was used. Assay mixtures were incubated for 60 min at RT in a volume of 0.5 ml containing […] or 75 μg membrane protein of human mGlu2, human mGlu3 or rat cortex, respectively. Non-specific binding was estimated in the presence of […] compound B (a NAM with IC50˜10 nM against hmGlu2 and IC50˜200 nM against hmGlu3). Filtration was performed using Whatman GF/C filter sheets pre-soaked in 0.1% PEI and a Brandell harvester 96.
# (§2) Filters from filters sheets were punched into vials. After the addition of scintillation liquid, radioactivity on the filters was counted in a Liquid Scintillation Analyzer from Perkin Elmer.
# Radioligand competition binding data were calculated as percentage of total binding measured in the absence of test compound. […] Sigmoid inhibition curves were analyzed using non-linear regression analysis.
# human mGlu2 = biological target: T1, human mGlu2 (Homo sapiens, UniProt Q14416); experiment: [3H]-compound A displacement binding, human mGlu2 HEK293 membranes; conditions: Glu2 HEK293, 6 nM [3H]-compound A
# T1 construct: expressed in transfected cells; host or cells: HEK293
# T1 sequence (Q14416 19-872): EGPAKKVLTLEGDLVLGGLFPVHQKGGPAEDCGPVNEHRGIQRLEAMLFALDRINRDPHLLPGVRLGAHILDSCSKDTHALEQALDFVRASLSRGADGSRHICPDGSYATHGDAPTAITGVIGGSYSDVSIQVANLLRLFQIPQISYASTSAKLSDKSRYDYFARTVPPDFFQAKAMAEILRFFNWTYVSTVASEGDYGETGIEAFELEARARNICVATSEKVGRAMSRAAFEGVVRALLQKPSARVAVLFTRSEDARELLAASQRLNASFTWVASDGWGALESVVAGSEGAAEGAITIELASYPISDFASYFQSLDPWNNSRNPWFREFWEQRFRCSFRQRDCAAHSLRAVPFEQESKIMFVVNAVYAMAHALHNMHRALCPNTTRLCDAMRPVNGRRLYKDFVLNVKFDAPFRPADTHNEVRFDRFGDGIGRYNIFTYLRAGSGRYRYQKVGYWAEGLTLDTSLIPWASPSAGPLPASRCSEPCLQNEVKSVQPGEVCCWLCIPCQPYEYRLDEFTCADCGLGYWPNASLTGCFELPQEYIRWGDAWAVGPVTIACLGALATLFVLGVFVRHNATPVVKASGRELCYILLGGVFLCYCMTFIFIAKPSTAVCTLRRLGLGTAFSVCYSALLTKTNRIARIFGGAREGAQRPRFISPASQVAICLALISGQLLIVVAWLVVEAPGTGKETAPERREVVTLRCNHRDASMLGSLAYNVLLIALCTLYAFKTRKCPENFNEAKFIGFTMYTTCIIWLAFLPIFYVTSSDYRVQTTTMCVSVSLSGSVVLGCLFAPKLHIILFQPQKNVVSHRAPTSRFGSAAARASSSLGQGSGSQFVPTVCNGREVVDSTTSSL
# Experimental: as §1, §2
# (§3) Radioligand competition binding data were calculated as percentage of total binding measured in the absence of test compound. Inhibition curves, plotting percentage of total binding versus the log concentration of the test compound, were generated using the Lexis software. Sigmoid inhibition curves were analyzed using non-linear regression analysis.
# [1] = Ex-vivo biodistribution in SD rats; design: species or system Sprague Dawley rats
# Experimental: Sprague-Dawley rats obtained from Harlan (the Netherlands), were housed in groups of four to six per cage until treatment. They were kept at a constant temperature of 21° C. and at a 12-h light/dark cycle, in which lights were switched on at 8:00 a.m. Animals had unrestricted access to food (Teklad Global 16% Protein Rodent Diet, Harlan, Madison, Wis., USA) and water. All animal experiments were performed in compliance with Belgium laws on animal experimentation and after approval by the local animal ethics committee.
# The biodistribution of [^18F]-1 was determined at 2, 10, 30 and 60 min, after injection in Sprague Dawley (SD) rats (n=3 per time point) while for [^18F]-2 the 30 min time point was not performed. Rats were injected intravenously with 0.7-1.1 MBq via a tail vein and euthanized at the time points indicated above, under isoflurane anesthesia. All tissues were dissected, weighed and counted for radioactivity in a gamma counter.
# The biodistribution of [^18F]-1 was determined at 2, 10, 30 and 60 min, after injection in Sprague Dawley rats (n=3 per time point). Rats were injected intravenously with 0.7-1.1 MBq via a tail vein and euthanized at the time points indicated above, under isoflurane anesthesia. All tissues were dissected, weighed and counted for radioactivity in a gamma counter.
# human mGlu3 = biological target: T2, human mGlu3 (Homo sapiens, UniProt Q14832); experiment: [3H]-compound A displacement binding, human mGlu3 HEK293 membranes; conditions: Glu3 HEK293, 25 nM [3H]-compound A
# T2 construct: expressed in transfected cells; host or cells: HEK293
# T2 sequence (Q14832 23-879): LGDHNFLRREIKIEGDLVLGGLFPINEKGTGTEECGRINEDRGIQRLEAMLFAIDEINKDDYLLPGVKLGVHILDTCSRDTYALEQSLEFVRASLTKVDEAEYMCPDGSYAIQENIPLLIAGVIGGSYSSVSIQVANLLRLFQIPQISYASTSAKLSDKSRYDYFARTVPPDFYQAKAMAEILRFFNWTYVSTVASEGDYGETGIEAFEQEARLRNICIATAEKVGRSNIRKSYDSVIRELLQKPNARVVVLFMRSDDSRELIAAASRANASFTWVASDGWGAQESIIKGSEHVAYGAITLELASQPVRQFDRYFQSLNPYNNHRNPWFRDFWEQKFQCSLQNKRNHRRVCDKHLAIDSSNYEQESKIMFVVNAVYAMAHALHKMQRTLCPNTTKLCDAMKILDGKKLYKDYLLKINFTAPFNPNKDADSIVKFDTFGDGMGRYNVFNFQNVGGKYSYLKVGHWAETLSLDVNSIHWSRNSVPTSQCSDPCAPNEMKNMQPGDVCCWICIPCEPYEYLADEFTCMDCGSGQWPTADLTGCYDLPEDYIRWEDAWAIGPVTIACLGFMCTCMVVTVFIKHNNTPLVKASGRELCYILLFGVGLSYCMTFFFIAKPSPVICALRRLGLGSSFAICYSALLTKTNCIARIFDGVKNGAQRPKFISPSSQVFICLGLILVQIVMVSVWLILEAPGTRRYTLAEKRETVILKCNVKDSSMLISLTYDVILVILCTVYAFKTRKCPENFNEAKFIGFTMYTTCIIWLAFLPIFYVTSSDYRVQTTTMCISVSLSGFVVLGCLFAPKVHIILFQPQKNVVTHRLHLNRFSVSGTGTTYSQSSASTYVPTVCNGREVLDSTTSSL
# Experimental: as §1, §2, §3
structure (smiles),measurement,setting,value
C[C@H]1CN(c2ccc(C(F)(F)F)cc2)C(=O)c2c(C#Cc3cnc(N)cc3C[18F])cnn21 [Compound 1],Eff Curve,Glu2-3 rat cortex,95
same,pIC50,Glu2-3 rat cortex,8.78
same,Eff Curve,human mGlu2,93
same,IC50,human mGlu2,2.75 nM
same,"Biodistribution, mean SUV","[1]; blood, 2 min after i.v. injection",1.12 SUV
same,"Biodistribution, mean SUV","[1]; blood, 10 min after i.v. injection",0.74 SUV
same,"Biodistribution, mean SUV","[1]; blood, 30 min after i.v. injection",0.47 SUV
same,"Biodistribution, mean SUV","[1]; blood, 60 min after i.v. injection",0.50 SUV
same,"Biodistribution, mean SUV","[1]; bone, 2 min after i.v. injection",0.39 SUV
same,"Biodistribution, mean SUV","[1]; bone, 10 min after i.v. injection",0.34 SUV
same,"Biodistribution, mean SUV","[1]; bone, 30 min after i.v. injection",0.48 SUV
same,"Biodistribution, mean SUV","[1]; bone, 60 min after i.v. injection",0.58 SUV
same,"Biodistribution, mean SUV","[1]; cerebellum, 2 min after i.v. injection",2.25 SUV
same,"Biodistribution, mean SUV","[1]; cerebellum, 10 min after i.v. injection",3.17 SUV
same,"Biodistribution, mean SUV","[1]; cerebellum, 30 min after i.v. injection",3.93 SUV
same,"Biodistribution, mean SUV","[1]; cerebellum, 60 min after i.v. injection",4.41 SUV
same,"Biodistribution, mean SUV","[1]; cerebrum + cerebellum, 2 min after i.v. injection",2.03 SUV
same,"Biodistribution, mean SUV","[1]; cerebrum + cerebellum, 10 min after i.v. injection",3.11 SUV
same,"Biodistribution, mean SUV","[1]; cerebrum + cerebellum, 30 min after i.v. injection",3.98 SUV
same,"Biodistribution, mean SUV","[1]; cerebrum + cerebellum, 60 min after i.v. injection",4.95 SUV
same,"Biodistribution, mean SUV","[1]; cortex, 2 min after i.v. injection",3.50 SUV
same,"Biodistribution, mean SUV","[1]; cortex, 10 min after i.v. injection",8.37 SUV
same,"Biodistribution, mean SUV","[1]; cortex, 30 min after i.v. injection",6.96 SUV
same,"Biodistribution, mean SUV","[1]; cortex, 60 min after i.v. injection",8.11 SUV
same,"Brain uptake, in words",[1]; ex-vivo biodistribution,very high
same,Defluorination judged from bone uptake over time,[1]; ex-vivo biodistribution,some defluorination
same,"Peripheral uptake, in words",[1]; ex-vivo biodistribution,highest uptake in the liver
same,"Biodistribution, mean SUV","[1]; heart, 2 min after i.v. injection",3.54 SUV
same,"Biodistribution, mean SUV","[1]; heart, 10 min after i.v. injection",2.11 SUV
same,"Biodistribution, mean SUV","[1]; heart, 30 min after i.v. injection",1.41 SUV
same,"Biodistribution, mean SUV","[1]; heart, 60 min after i.v. injection",1.30 SUV
same,"Biodistribution, mean SUV","[1]; hippocampus, 2 min after i.v. injection",1.53 SUV
same,"Biodistribution, mean SUV","[1]; hippocampus, 10 min after i.v. injection",2.49 SUV
same,"Biodistribution, mean SUV","[1]; hippocampus, 30 min after i.v. injection",3.10 SUV
same,"Biodistribution, mean SUV","[1]; hippocampus, 60 min after i.v. injection",3.90 SUV
same,"Biodistribution, mean SUV","[1]; kidneys, 2 min after i.v. injection",4.97 SUV
same,"Biodistribution, mean SUV","[1]; kidneys, 10 min after i.v. injection",2.58 SUV
same,"Biodistribution, mean SUV","[1]; kidneys, 30 min after i.v. injection",2.08 SUV
same,"Biodistribution, mean SUV","[1]; kidneys, 60 min after i.v. injection",2.16 SUV
same,"Biodistribution, mean SUV","[1]; liver, 2 min after i.v. injection",9.74 SUV
same,"Biodistribution, mean SUV","[1]; liver, 10 min after i.v. injection",6.38 SUV
same,"Biodistribution, mean SUV","[1]; liver, 30 min after i.v. injection",4.66 SUV
same,"Biodistribution, mean SUV","[1]; liver, 60 min after i.v. injection",4.75 SUV
same,"Biodistribution, mean SUV","[1]; lungs, 2 min after i.v. injection",2.93 SUV
same,"Biodistribution, mean SUV","[1]; lungs, 10 min after i.v. injection",1.78 SUV
same,"Biodistribution, mean SUV","[1]; lungs, 30 min after i.v. injection",1.63 SUV
same,"Biodistribution, mean SUV","[1]; lungs, 60 min after i.v. injection",1.92 SUV
same,"Biodistribution, mean SUV","[1]; muscle, 2 min after i.v. injection",0.50 SUV
same,"Biodistribution, mean SUV","[1]; muscle, 10 min after i.v. injection",0.83 SUV
same,"Biodistribution, mean SUV","[1]; muscle, 30 min after i.v. injection",0.75 SUV
same,"Biodistribution, mean SUV","[1]; muscle, 60 min after i.v. injection",0.79 SUV
same,"Biodistribution, mean SUV","[1]; pancreas, 2 min after i.v. injection",4.30 SUV
same,"Biodistribution, mean SUV","[1]; pancreas, 10 min after i.v. injection",2.36 SUV
same,"Biodistribution, mean SUV","[1]; pancreas, 30 min after i.v. injection",2.06 SUV
same,"Biodistribution, mean SUV","[1]; pancreas, 60 min after i.v. injection",2.33 SUV
same,"Biodistribution, mean SUV","[1]; pons, 2 min after i.v. injection",1.53 SUV
same,"Biodistribution, mean SUV","[1]; pons, 10 min after i.v. injection",1.73 SUV
same,"Biodistribution, mean SUV","[1]; pons, 30 min after i.v. injection",1.76 SUV
same,"Biodistribution, mean SUV","[1]; pons, 60 min after i.v. injection",1.85 SUV
same,"Biodistribution, mean SUV","[1]; rest of cerebrum, 2 min after i.v. injection",2.06 SUV
same,"Biodistribution, mean SUV","[1]; rest of cerebrum, 10 min after i.v. injection",3.34 SUV
same,"Biodistribution, mean SUV","[1]; rest of cerebrum, 30 min after i.v. injection",4.37 SUV
same,"Biodistribution, mean SUV","[1]; rest of cerebrum, 60 min after i.v. injection",5.52 SUV
same,"Biodistribution, mean SUV","[1]; spleen, 2 min after i.v. injection",2.81 SUV
same,"Biodistribution, mean SUV","[1]; spleen, 10 min after i.v. injection",1.68 SUV
same,"Biodistribution, mean SUV","[1]; spleen, 30 min after i.v. injection",1.06 SUV
same,"Biodistribution, mean SUV","[1]; spleen, 60 min after i.v. injection",1.02 SUV
same,"Biodistribution, mean SUV","[1]; striatum, 2 min after i.v. injection",1.98 SUV
same,"Biodistribution, mean SUV","[1]; striatum, 10 min after i.v. injection",3.46 SUV
same,"Biodistribution, mean SUV","[1]; striatum, 30 min after i.v. injection",4.15 SUV
same,"Biodistribution, mean SUV","[1]; striatum, 60 min after i.v. injection",7.12 SUV
same,"Biodistribution, mean SUV","[1]; whole cerebrum, 2 min after i.v. injection",1.96 SUV
same,"Biodistribution, mean SUV","[1]; whole cerebrum, 10 min after i.v. injection",3.05 SUV
same,"Biodistribution, mean SUV","[1]; whole cerebrum, 30 min after i.v. injection",3.94 SUV
same,"Biodistribution, mean SUV","[1]; whole cerebrum, 60 min after i.v. injection",5.00 SUV
same,Eff Curve,human mGlu3,104
same,IC50,human mGlu3,7.24 nM
